The structures appear in SMILES notation.

Data on three compounds can be found in ChEMBL document CHEMBL4480460, “Concise Modular Synthesis of Thalassotalic Acids A-C” (J Nat Prod, 2019).

The target in this assay is T1, Tyrosinase (Agaricus bisporus, UniProt O42713).
T1 sequence (O42713 whole entry): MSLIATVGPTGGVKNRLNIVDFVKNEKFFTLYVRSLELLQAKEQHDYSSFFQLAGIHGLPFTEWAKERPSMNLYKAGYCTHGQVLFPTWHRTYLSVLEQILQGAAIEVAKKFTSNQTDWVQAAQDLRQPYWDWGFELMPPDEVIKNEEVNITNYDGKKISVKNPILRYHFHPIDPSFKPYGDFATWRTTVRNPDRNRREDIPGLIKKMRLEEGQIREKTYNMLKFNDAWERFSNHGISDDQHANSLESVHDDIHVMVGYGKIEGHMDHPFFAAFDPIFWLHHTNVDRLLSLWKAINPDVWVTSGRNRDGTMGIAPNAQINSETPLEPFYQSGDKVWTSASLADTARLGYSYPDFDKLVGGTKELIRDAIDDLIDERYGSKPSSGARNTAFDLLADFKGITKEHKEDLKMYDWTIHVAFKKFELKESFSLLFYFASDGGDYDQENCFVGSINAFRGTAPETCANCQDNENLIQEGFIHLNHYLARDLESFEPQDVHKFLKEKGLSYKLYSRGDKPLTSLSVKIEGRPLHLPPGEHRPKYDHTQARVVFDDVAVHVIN
Description: Inhibition of mushroom tyrosinase using L-tyrosine as substrate measured after 30 mins
`CCCCCCCCC(=O)N/C(=C\c1ccc(O)cc1)C(=O)O` displayed an IC50 of 250 µM.

For `O=C(O)/C(=C/c1ccc(O)cc1)NC(=O)c1ccccc1`, the midpoint of inhibition, the IC50, lay at 180 µM.

With `CC(=O)N/C(=C\c1ccc(O)cc1)C(=O)O`, the midpoint of inhibition, the IC50, lay at 65 µM.
